From the CheMixHub ionic liquid set

Assay: xn = mol fraction of the nth substance listed
Conditions: for electrical conductivity: 293.2 K

CC[N+](CC)=C(N(C)C)N(C)C.O=S(=O)([N-]S(=O)(=O)C(F)(F)F)C(F)(F)F + CCO
viscosity [mPa·s], 101 kPa
Conditions	293.15 K	298.15 K	303.15 K	308.15 K	313.15 K	318.15 K	323.15 K
x1 = 0.0004697	1.188	1.083	0.985	0.895	0.825	0.758	0.701
x1 = 0.0008976	1.203	1.096	0.996	0.905	0.834	0.766	0.708
x1 = 0.002294	1.228	1.119	1.016	0.922	0.849	0.78	0.72
x1 = 0.004714	1.266	1.146	1.04	0.945	0.871	0.8	0.738
x1 = 0.009053	1.318	1.197	1.088	0.987	0.909	0.835	0.772
x1 = 0.018	1.438	1.304	1.185	1.075	0.989	0.909	0.839
x1 = 0.02647	1.561	1.414	1.282	1.162	1.069	0.981	0.904
x1 = 0.03521	1.7	1.537	1.394	1.263	1.156	1.061	0.98
x1 = 0.04396	1.85	1.66	1.502	1.363	1.253	1.149	1.06
x1 = 0.05173	1.99	1.79	1.612	1.459	1.327	1.218	1.121
x1 = 0.06055	2.15	1.92	1.73	1.564	1.419	1.304	1.199
x1 = 0.07263	2.38	2.12	1.91	1.72	1.557	1.423	1.306
x1 = 0.08417	2.61	2.32	2.08	1.87	1.69	1.542	1.412
x1 = 0.1028	2.97	2.65	2.37	2.13	1.92	1.75	1.592
x1 = 0.1216	3.38	3.01	2.69	2.42	2.18	1.96	1.77

101 kPa
Conditions	electrical conductivity [S/m]
x1 = 0.0004697	0.0209
x1 = 0.0008976	0.0341
x1 = 0.002294	0.0657
x1 = 0.004714	0.109
x1 = 0.009053	0.167
x1 = 0.018	0.278
x1 = 0.02647	0.393
x1 = 0.03521	0.477
x1 = 0.04396	0.552
x1 = 0.05173	0.591
x1 = 0.06055	0.661
x1 = 0.07263	0.716
x1 = 0.08417	0.756
x1 = 0.1028	0.848
x1 = 0.1216	0.904

CCC(C)O (stereo not given) + CCOS(=O)(=O)[O-].CC[n+]1ccn(C)c1
Conditions	viscosity [mPa·s]
308.15 K, 101 kPa, x2 = 0	2

O=C([O-])c1ccccc1.[Na+] + CCOS(=O)(=O)[O-].CC[n+]1ccn(C)c1 + O
viscosity [mPa·s], 101.3 kPa
Conditions	293.15 K	298.15 K	303.15 K	308.15 K	313.15 K
x1 = 0.0001784, x2 = 0	1.009	0.897	0.803	0.727	0.651
x1 = 0.0001804, x2 = 0.001795	1.079	0.966	0.851	0.757	0.685
x1 = 0.0001842, x2 = 0.002697	1.114	0.994	0.883	0.795	0.716
x1 = 0.0001899, x2 = 0.003589	1.144	1.024	0.907	0.819	0.735
x1 = 0.0005403, x2 = 0	1.014	0.903	0.809	0.733	0.657
x1 = 0.0005539, x2 = 0.001794	1.086	0.973	0.858	0.764	0.692
x1 = 0.0005579, x2 = 0.002696	1.121	1.001	0.89	0.802	0.723
x1 = 0.0005619, x2 = 0.003587	1.151	1.032	0.915	0.827	0.743
x1 = 0.0009002, x2 = 0	1.019	0.908	0.814	0.738	0.662
x1 = 0.0009234, x2 = 0.001794	1.092	0.979	0.864	0.77	0.698
x1 = 0.0009314, x2 = 0.002695	1.128	1.008	0.897	0.809	0.73
x1 = 0.0009412, x2 = 0.003586	1.158	1.039	0.922	0.834	0.75
x1 = 0.001258, x2 = 0	1.024	0.913	0.819	0.743	0.667
x1 = 0.001287, x2 = 0.001793	1.098	0.984	0.869	0.776	0.703
x1 = 0.001299, x2 = 0.002694	1.134	1.014	0.903	0.815	0.737
x1 = 0.001311, x2 = 0.003585	1.165	1.047	0.929	0.841	0.757
x1 = 0.001619, x2 = 0	1.029	0.918	0.824	0.748	0.672
x1 = 0.001651, x2 = 0.001792	1.103	0.99	0.875	0.781	0.709
x1 = 0.001674, x2 = 0.002693	1.14	1.02	0.91	0.821	0.742
x1 = 0.001689, x2 = 0.003583	1.172	1.053	0.936	0.848	0.764
x1 = 0.001978, x2 = 0	1.034	0.923	0.829	0.753	0.677
x1 = 0.002025, x2 = 0.001792	1.108	0.997	0.881	0.786	0.715
x1 = 0.002045, x2 = 0.002692	1.146	1.027	0.915	0.827	0.748
x1 = 0.002068, x2 = 0.003582	1.178	1.059	0.943	0.854	0.77

CCC(C)O (stereo not given) + CC[n+]1ccn(C)c1.N#C[N-]C#N
100 kPa, x2 = 0
Conditions	viscosity [mPa·s]
298.15 K	3.01
303.15 K	2.55
308.15 K	2.21
313.15 K	1.97
318.15 K	1.79
323.15 K	1.63

CCC(C)O (stereo not given) + CC[n+]1ccn(C)c1.O=S(=O)([O-])C(F)(F)F
Conditions	viscosity [mPa·s]
308.15 K, 101 kPa, x2 = 0	2

O=C([O-])CC(O)(CC(=O)[O-])C(=O)[O-].[Li+].[Li+].[Li+] + CC[n+]1ccn(C)c1.O=S(=O)([O-])O + O
viscosity [mPa·s], 101 kPa
Conditions	293.15 K	298.15 K	303.15 K	308.15 K	313.15 K
x1 = 0.0003639, x2 = 0	1.022	0.927	0.835	0.757	0.691
x1 = 0.0007293, x2 = 0	1.043	0.946	0.854	0.776	0.712
x1 = 0.0008074, x2 = 0.0007287	1.082	1.003	0.885	0.81	0.751
x1 = 0.0008123, x2 = 0.000664	1.069	0.99	0.883	0.811	0.734
x1 = 0.0008236, x2 = 0.0009246	1.112	1.003	0.906	0.825	0.745
x1 = 0.0009579, x2 = 0.0007286	1.09	1.01	0.892	0.817	0.758
x1 = 0.000959, x2 = 0.0006639	1.077	0.996	0.89	0.818	0.741
x1 = 0.001091, x2 = 0	1.063	0.961	0.869	0.793	0.729
x1 = 0.001134, x2 = 0.0009243	1.13	1.017	0.92	0.84	0.761
x1 = 0.001339, x2 = 0.0009241	1.142	1.025	0.929	0.849	0.771
x1 = 0.001445, x2 = 0	1.083	0.974	0.883	0.807	0.745
x1 = 0.001498, x2 = 0.0007282	1.121	1.032	0.914	0.841	0.784
x1 = 0.001582, x2 = 0.0006634	1.113	1.021	0.915	0.845	0.769
x1 = 0.001715, x2 = 0.000728	1.134	1.04	0.923	0.85	0.794
x1 = 0.001743, x2 = 0.0006633	1.122	1.026	0.922	0.852	0.776
x1 = 0.001787, x2 = 0.0009237	1.169	1.042	0.947	0.869	0.791
x1 = 0.001793, x2 = 0	1.102	0.986	0.896	0.821	0.759
x1 = 0.002226, x2 = 0	1.126	1	0.911	0.837	0.777
x1 = 0.002241, x2 = 0.000663	1.15	1.044	0.94	0.871	0.797
x1 = 0.002241, x2 = 0.0007276	1.164	1.059	0.942	0.871	0.817
x1 = 0.002293, x2 = 0.0009233	1.198	1.061	0.967	0.89	0.814
x1 = 0.002592, x2 = 0.0006628	1.17	1.055	0.952	0.884	0.811
x1 = 0.002633, x2 = 0.0007274	1.186	1.073	0.956	0.886	0.833
x1 = 0.002689, x2 = 0.0009229	1.221	1.074	0.981	0.906	0.831
x1 = 0.002748, x2 = 0	1.155	1.016	0.928	0.855	0.797

O=C([O-])CC(O)(CC(=O)[O-])C(=O)[O-].[NH4+].[NH4+].[NH4+] + CC[n+]1ccn(C)c1.O=S(=O)([O-])O + O
viscosity [mPa·s], 101 kPa
Conditions	x1 = 0.0003657, x2 = 0	x1 = 0.0007347, x2 = 0	x1 = 0.001087, x2 = 0	x1 = 0.001443, x2 = 0	x1 = 0.00179, x2 = 0	x1 = 0.002235, x2 = 0	x1 = 0.00271, x2 = 0
293.15 K	1.022	1.043	1.063	1.083	1.102	1.127	1.153
298.15 K	0.923	0.939	0.953	0.965	0.976	0.989	1.002
303.15 K	0.829	0.846	0.859	0.872	0.883	0.897	0.911
308.15 K	0.75	0.768	0.782	0.795	0.807	0.822	0.837
313.15 K	0.684	0.702	0.717	0.731	0.744	0.76	0.776

c1c[nH]cn1 + CC[n+]1ccn(C)c1.[Cl-]
298.2 K, 100 kPa
Conditions	viscosity [mPa·s]
x2 = 0.25	38.7
x2 = 0.5	82.5

CCCCCC[n+]1ccn(C)c1.[Cl-] + CN1CCCC1=O
100 kPa
Conditions	viscosity [mPa·s]
293.15 K, x2 = 0.4223	288
298.15 K, x2 = 0.2211	1042
298.15 K, x2 = 0.3181	467
298.15 K, x2 = 0.5271	92.7
298.15 K, x2 = 0.718	19.13
298.15 K, x2 = 0.8139	8.49
303.15 K, x2 = 0.4223	152
308.15 K, x2 = 0.2211	481
308.15 K, x2 = 0.718	13.69
308.15 K, x2 = 0.8139	6.46
313.15 K, x2 = 0.6327	21.54
313.15 K, x2 = 0.718	11.59
313.15 K, x2 = 0.9083	2.78
323.15 K, x2 = 0.3181	102.2
323.15 K, x2 = 0.4223	54.5
328.15 K, x2 = 0.4223	44.4
328.15 K, x2 = 0.718	7.66
333.15 K, x2 = 0.9083	2.041

CCCCCC[n+]1ccn(C)c1.[Cl-] + CN(C)C=O
101 kPa
Conditions	viscosity [mPa·s]
288.15 K, x2 = 0.2751	230
308.15 K, x2 = 0.6856	9.1
